Data on 5 compounds can be found in patent US11278533B2, “Animal pest control method” (E.I. DU PONT DE NEMOURS AND COMPANY, priority 2007, dated 2022).

The subject of this experiment is cat flea (Ctenocephalides felis). The experiment in a line: Test D: cat flea membrane feeding on treated bovine blood. It is filed as in vivo. The note with it: 72 h. How it is done: For evaluating control of the cat flea (Ctenocephalides felis), a test compound was solubilized in propylene glycol/glycerol formal (60:40) and then diluted in bovine blood to a final test rate of 30 ppm. The treated blood was placed in a tube, and the bottom of the tube was covered with a membrane. Approximately 10 adult cat fleas were allowed to feed through the membrane on the treated blood. The adult fleas were then evaluated for mortality 72 hours later.
As usually defined, the mortality is the share of the test organisms that died. Read a high mortality as a strong lethal effect. `Cc1cc(C2=NOC(c3cc(Cl)cc(Cl)c3)(C(F)(F)F)C2)ccc1C(=O)NCc1ccccn1` (centres unmarked) [Compound 1, 4-[5-(3,5-dichlorophenyl)-4,5-dihydro-5-(trifluoromethyl)-3-isoxazolyl]-2-methyl-N-(2-pyridinylmethyl)benzamide] gave a mortality at 30 ppm of at least 50%. With `CSCCNC(=O)c1ccc(C2=NOC(c3cc(Cl)cc(Cl)c3)(C(F)(F)F)C2)cc1C` (centres unmarked) [Compound 2, 4-[5-(3,5-dichlorophenyl)-4,5-dihydro-5-(trifluoromethyl)-3-isoxazolyl]-2-methyl-N-[2-(methylthio)ethyl]benzamide], the mortality at 30 ppm is at least 50%. In turn, `Cc1cc(C2=NOC(c3cc(Cl)cc(Cl)c3)(C(F)(F)F)C2)ccc1C(=O)NCCS(C)(=O)=O` (centres unmarked) [Compound 6, 4-[5-(3,5-dichlorophenyl)-4,5-dihydro-5-(trifluoromethyl)-3-isoxazolyl]-2-methyl-N-[2-(methylsulfonyl)ethyl]benzamide] registered a mortality at 30 ppm of at least 50%. Consider `Cc1cc(C2=NOC(c3cc(Cl)cc(Cl)c3)(C(F)(F)F)C2)ccc1C(=O)NCC(=O)NCC(F)(F)F` (centres unmarked) [Compound 3, 4-[5-(3,5-dichlorophenyl)-4,5-dihydro-5-(trifluoromethyl)-3-isoxazolyl]-2-methyl-N-[2-oxo-2-[(2,2,2-trifluoroethyl)amino]ethyl]benzamide], for which the mortality at 30 ppm is at least 50%. Turning to `Cc1cc(C2=NOC(c3cc(Cl)cc(Cl)c3)(C(F)(F)F)C2)ccc1C(=O)NCC[S+](C)[O-]` (centres unmarked) [Compound 5, 4-[5-(3,5-dichlorophenyl)-4,5-dihydro-5-(trifluoromethyl)-3-isoxazolyl]-2-methyl-N-[2-(methylsulfinyl)ethyl]benzamide], the mortality at 30 ppm was at least 50%.
